Source: patent US4698352A, “4-oxo-1,4-dihydronicotinic acid derivatives, salts thereof, and antibacterial agents containing the same” (Toyama Chemical Co., Ltd., priority 1982, dated 1987)
Values after ≈ are worked out from the molar mass of the structure shown. Where two headings read alike, the source gives them in different places.

Tests used:
Assay in all cases: Antibacterial activity (MIC), agar dilution
Assay type in all cases: cell-based
[1] = system: E. coli GN5482**; conditions: Escherichia coli, 20 h; E. coli GN5482, cephalospolinase-producing; 10^6 cells per ml; read-out: MIC
From the text: (§1) The amount of bacteria inoculated was 10^4 cells per plate (10^6 cells per ml).
(§2) ** Cephalospolinase-producing bacteria

[2] = system: Ps. aeruginosa GN918**; conditions: Pseudomonas aeruginosa, Ps. aeruginosa GN918, cephalospolinase-producing, 10^6 cells per ml
From the text: as §1, §2

[3] = system: Pro. vulgaris GN76**; conditions: Proteus vulgaris, 20 h; Pro. vulgaris GN76, cephalospolinase-producing; 10^6 cells per ml; read-out: MIC
From the text: as §1, §2

[4] = system: Pro. mirabilis T-111; conditions: Proteus mirabilis, 37° C.
From the text: as §1

[5] = system: Kl. pneumoniae Y-41; conditions: Klebsiella pneumoniae, Y41, 10^6 cells per ml, 37° C., 20 hours, read-out: MIC
From the text: as §1

[6] = system: Kl. pneumoniae Y-50; conditions: Klebsiella pneumoniae, Y50, 20 h, 10^6 cells per ml, 37° C., read-out: MIC
From the text: as §1

[7] = system: Ps. aeruginosa IFO3445; conditions: Pseudomonas aeruginosa
From the text: as §1

[8] = system: E. coli TK-111; conditions: Escherichia coli, TK111, 20 h, E. coli TK-111; 10^6 cells per ml; 37° C., 20 hours; read-out: MIC
From the text: as §1

[9] = system: St. aureus FDA209P; conditions: Staphylococcus aureus, FDA209P, 20 h, St. aureus FDA209P; 10^6 cells per ml; 37° C., 20 hours; read-out: MIC
From the text: as §1

[10] = system: Pro. vulgaris GN3027; conditions: Proteus vulgaris, GN3027, 20 h, Pro. vulgaris GN3027; 10^6 cells per ml; 37° C., 20 hours; read-out: MIC
From the text: as §1

[11] = system: E. coli NIHJ JC-2; conditions: Escherichia coli, NIHJJC2, 20 h, E. coli NIHJ JC-2; 10^6 cells per ml; 37° C., 20 hours; read-out: MIC
From the text: as §1

[12] = system: Aci. antitratus A-6; conditions: 20 h, Aci. antitratus A-6; 10^6 cells per ml; 37° C., 20 hours; read-out: MIC
From the text: as §1

[13] = system: Pro. morganii T-216; conditions: Morganella morganii, 37° C.
From the text: as §1

[14] = system: Ps. aeruginosa S-68; conditions: Pseudomonas aeruginosa
From the text: as §1

[15] = system: Ent. cloacae IID977; conditions: Enterobacter cloacae, IID977, 20 h, Ent. cloacae IID977; 10^6 cells per ml; 37° C., 20 hours; read-out: MIC
From the text: as §1

[16] = system: E. coli TK-3*; conditions: Escherichia coli, 20 h, E. coli TK-3, penicillinase-producing; 10^6 cells per ml; read-out: MIC
From the text: as §1
(§3) * Penicillinase-producing bacteria

[17] = system: St. aureus F-137*; conditions: Staphylococcus aureus, 20 h, St. aureus F-137, penicillinase-producing; 10^6 cells per ml; read-out: MIC
From the text: as §1, §3

[18] = system: Kl. pneumoniae Y-4*; conditions: Klebsiella pneumoniae, 20 h, Kl. pneumoniae Y-4, penicillinase-producing, 10^6 cells per ml
From the text: as §1, §3

[19] = system: Ps. aeruginosa GN3379*; conditions: Pseudomonas aeruginosa, Ps. aeruginosa GN3379, penicillinase-producing, 10^6 cells per ml
From the text: as §1, §3

[20] = Ps. aeruginosa IFO3445, 10^6 cells per ml, 37° C., 20 hours, read-out: MIC
[21] = S68, Ps. aeruginosa S-68, 10^6 cells per ml, 37° C., 20 hours, read-out: MIC
[22] = T216, 10^6 cells per ml, 20 hours, read-out: MIC

SMILES	MIC [1]	MIC ([2]; 20 h, read-out: MIC)	MIC [3]	MIC ([4]; T111, 20 h, 10^6 cells per ml)	MIC [5]	MIC [6]	MIC [7, 20]	MIC [8]	MIC [9]	MIC [10]	MIC [11]	MIC [12]	MIC ([13]; T216, 20 h, 10^6 cells per ml)	MIC [14, 21]	MIC [15]	MIC [16]	MIC [17]	MIC ([18]; read-out: MIC)	MIC ([19]; 20 h, read-out: MIC)	MIC [13, 22]	further results
Cc1cc(O)ccc1-n1cc(C(=O)O)c(=O)cc1-c1ccc2[nH]ccc2c1	≤ 0.05 µg/mL	3.13 µg/mL (≈ 8.69 µM)	0.78 µg/mL (≈ 2.16 µM)	1.56 µg/mL (≈ 4.33 µM)	0.78 µg/mL (≈ 2.16 µM)	0.2 µg/mL (≈ 0.555 µM)	6.25 µg/mL (≈ 17.3 µM)	0.1 µg/mL (≈ 0.277 µM)	0.1 µg/mL (≈ 0.277 µM)	0.2 µg/mL (≈ 0.555 µM)	0.39 µg/mL (≈ 1.08 µM)	3.13 µg/mL (≈ 8.69 µM)	1.56 µg/mL (≈ 4.33 µM)	6.25 µg/mL (≈ 17.3 µM)	0.78 µg/mL (≈ 2.16 µM)	0.39 µg/mL (≈ 1.08 µM)	0.1 µg/mL (≈ 0.277 µM)	1.56 µg/mL (≈ 4.33 µM)	25 µg/mL (≈ 69.4 µM)		
COc1ccc(-c2cc(=O)c(C(=O)O)cn2-c2ccc(O)cc2C)cc1F	≤ 0.05 µg/mL		0.39 µg/mL (≈ 1.06 µM)	1.56 µg/mL (≈ 4.22 µM)	1.56 µg/mL (≈ 4.22 µM)	0.78 µg/mL (≈ 2.11 µM)	12.5 µg/mL (≈ 33.8 µM)	≤ 0.05 µg/mL	0.1 µg/mL (≈ 0.271 µM)	0.1 µg/mL (≈ 0.271 µM)	0.39 µg/mL (≈ 1.06 µM)	0.39 µg/mL (≈ 1.06 µM)	1.56 µg/mL (≈ 4.22 µM)	6.25 µg/mL (≈ 16.9 µM)	0.39 µg/mL (≈ 1.06 µM)	0.39 µg/mL (≈ 1.06 µM)	0.1 µg/mL (≈ 0.271 µM)	1.56 µg/mL (≈ 4.22 µM)	12.5 µg/mL (≈ 33.8 µM)		MIC ([2]; GN918, 20 h): 1.56 µg/mL (≈ 4.22 µM)
Cc1cc(O)ccc1-n1cc(C(=O)O)c(=O)cc1/C=C/c1ccccc1	≤ 0.05 µg/mL	1.56 µg/mL (≈ 4.49 µM)	0.39 µg/mL (≈ 1.12 µM)	3.13 µg/mL (≈ 9.01 µM)	3.13 µg/mL (≈ 9.01 µM)	0.39 µg/mL (≈ 1.12 µM)	25 µg/mL (≈ 72 µM)	0.2 µg/mL (≈ 0.576 µM)	0.1 µg/mL (≈ 0.288 µM)	0.1 µg/mL (≈ 0.288 µM)	0.39 µg/mL (≈ 1.12 µM)	0.1 µg/mL (≈ 0.288 µM)			1.56 µg/mL (≈ 4.49 µM)	0.39 µg/mL (≈ 1.12 µM)	0.2 µg/mL (≈ 0.576 µM)	3.13 µg/mL (≈ 9.01 µM)	6.25 µg/mL (≈ 18 µM)	1.56 µg/mL (≈ 4.49 µM)	MIC ([14]; S68, 20 h): 3.13 µg/mL (≈ 9.01 µM)
O=C(O)c1cn(-c2ccc(O)cc2)c(-c2ccc(-n3cccc3)cc2)cc1=O	≤ 0.05 µg/mL		0.78 µg/mL (≈ 2.09 µM)	1.56 µg/mL (≈ 4.19 µM)	1.56 µg/mL (≈ 4.19 µM)	0.39 µg/mL (≈ 1.05 µM)	3.13 µg/mL (≈ 8.41 µM)	≤ 0.05 µg/mL	0.1 µg/mL (≈ 0.269 µM)	0.2 µg/mL (≈ 0.537 µM)	0.1 µg/mL (≈ 0.269 µM)	0.1 µg/mL (≈ 0.269 µM)	1.56 µg/mL (≈ 4.19 µM)	3.13 µg/mL (≈ 8.41 µM)	0.78 µg/mL (≈ 2.09 µM)	0.39 µg/mL (≈ 1.05 µM)	0.1 µg/mL (≈ 0.269 µM)	1.56 µg/mL (≈ 4.19 µM)	3.13 µg/mL (≈ 8.41 µM)		MIC ([2]; GN918, 20 h): 1.56 µg/mL (≈ 4.19 µM)
O=C(O)c1cn(-c2ccc(O)cc2)c(-c2ccc(-c3ccccn3)s2)cc1=O	≤ 0.05 µg/mL	1.56 µg/mL (≈ 4 µM)	0.78 µg/mL (≈ 2 µM)	3.13 µg/mL (≈ 8.02 µM)	3.13 µg/mL (≈ 8.02 µM)	0.78 µg/mL (≈ 2 µM)		≤ 0.05 µg/mL	0.2 µg/mL (≈ 0.512 µM)	0.1 µg/mL (≈ 0.256 µM)	0.39 µg/mL (≈ 0.999 µM)	0.78 µg/mL (≈ 2 µM)			1.56 µg/mL (≈ 4 µM)	0.78 µg/mL (≈ 2 µM)	0.2 µg/mL (≈ 0.512 µM)	3.13 µg/mL (≈ 8.02 µM)		1.56 µg/mL (≈ 4 µM)	MIC ([7]; IFO3445, 20 h): 3.13 µg/mL (≈ 8.02 µM); MIC ([14]; S68, 20 h): 3.13 µg/mL (≈ 8.02 µM); MIC ([19]; GN3379, 20 h): 3.13 µg/mL (≈ 8.02 µM)
Cc1cc(O)ccc1-n1cc(C(=O)O)c(=O)cc1-c1ccc(N(C)C)cc1	≤ 0.05 µg/mL	1.56 µg/mL (≈ 4.28 µM)	0.39 µg/mL (≈ 1.07 µM)		0.78 µg/mL (≈ 2.14 µM)	0.2 µg/mL (≈ 0.549 µM)	3.13 µg/mL (≈ 8.59 µM)	≤ 0.05 µg/mL	≤ 0.05 µg/mL	0.1 µg/mL (≈ 0.274 µM)	0.1 µg/mL (≈ 0.274 µM)	0.1 µg/mL (≈ 0.274 µM)		3.13 µg/mL (≈ 8.59 µM)	0.39 µg/mL (≈ 1.07 µM)	0.2 µg/mL (≈ 0.549 µM)	≤ 0.05 µg/mL		3.13 µg/mL (≈ 8.59 µM)	0.78 µg/mL (≈ 2.14 µM)	MIC ([4]; T111, 10^6 cells per ml, 20 hours, read-out: MIC): 0.78 µg/mL (≈ 2.14 µM); MIC [18]: 0.78 µg/mL (≈ 2.14 µM)
